The values that follow come from patent US5750712A, “2-(n-cyanoimino)-thiazolidin-4-one derivatives” (priority 1994, dated 1998).

Counter-ions that a name gives are not always drawn.

One assay deals with aldose reducing enzyme (Homo sapiens, UniProt P15121). As to the kind of experiment: Aldose reducing enzyme inhibiting activity (method of Hayman et al.). Format: biochemical, Recombinant. To be noted: 1.0×10^-7 mol concentration level of the tested compound; human recombinant enzyme; read-out: Inhibition rate (%).
As a reminder, the inhibition is the share of the control response that was lost under treatment. As to `CC(=Cc1ccccc1)C=C1SC(=NC#N)NC1=O` [Example 1, 2-(N-cyanoimino)-5-(2-methyl-3-phenylpropenylidene) thiazolidin-4-one], the inhibition at 0.1 µM came out at 72%. On the same count and under the same terms, the result for `CC(=Cc1ccccc1)C=C1SC(=NC#N)N(CC(=O)O)C1=O` [Example 2, 2-(N-cyanoimino)-5-(2-methyl-3-phenylpropenylidene)-4-oxo-3-thiazolidine acetic acid] reads 100%. For `CC(=Cc1ccccc1)C=C1SC(=NC#N)N(C)C1=O` [Example 3, 2-(N-cyanoimino)-3-methyl-5-(2-methyl-3-phenylpropenylidene) thiazolidin-4-one], the inhibition at 0.1 µM is 12%. As for `N#CN=C1NC(=O)C(=Cc2ccc3c(c2)OCO3)S1` [Example 4, 2-(N-cyanoimino)-5-(3,4-methylenedioxybenzylidene) thiazolidin-4-one], the inhibition at 0.1 µM amounted to 44%. As to `N#CN=C1NC(=O)C(=Cc2ccc3ccccc3c2)S1` [Example 5, 2-(N-cyanoimino)-5-(2-naphthylmethylene) thiazolidin-4-one], the inhibition at 0.1 µM worked out at 44%.

For `N#CN=C1NC(=O)C(=Cc2ccccc2)S1` [Example 6, 5-benzylidene-2-(N-cyanoimino)-4-oxythiazolidine], the inhibition at 0.1 µM amounted to 32%. Turning to `N#CN=C1NC(=O)C(=CC=Cc2ccccc2)S1` [Example 7, 2-(N-cyanoimino)-5-(3-phenylpropenylidene) thiazolidin-4-one], the inhibition at 0.1 µM worked out at 44%. With `COc1ccc2cc(C=C3SC(=NC#N)NC3=O)ccc2c1` [Example 8, 2-(N-cyanoimino)-5-[2-(6-methoxynaphthyl)methylene]thiazolidin-4-one], the inhibition at 0.1 µM is 68%.

Regarding `N#CN=C1NC(=O)C(=Cc2cccc3ccccc23)S1` [Example 9, 2-(N-cyanoimino)-5-(1-naphthylmethylene) thiazolidin-4-one], the inhibition at 0.1 µM came to 20%. Consider `COc1cc(C=C2SC(=NC#N)NC2=O)ccc1O` [Example 10, 2-(N-cyanoimino)-5-(4-hydroxy-3-methoxybenzylidene) thiazolidin-4-one], for which the inhibition at 0.1 µM came out at 100%. Consider `Cc1cccc(C=C2SC(=NC#N)NC2=O)c1` [Example 11, 2-(N-cyanoimino)-5-(3-methylbenzylidene) thiazolidin-4-one], for which the inhibition at 0.1 µM turned out to be 52%. In the case of `COc1ccccc1C=CC=C1SC(=NC#N)NC1=O` [Example 12, 2-(N-cyanoimino)-5-[3-(2-methoxyphenyl)propenylidene] thiazolidin-4-one], the inhibition at 0.1 µM stood at 84%. Regarding `CCC(=C1SC(=NC#N)NC1=O)c1ccccc1` [Example 14, 2-(N-cyanoimino)-5-(1-phenylpropylidene) thiazolidin-4-one], the inhibition at 0.1 µM amounted to 12%. As for `CC(=C1SC(=NC#N)NC1=O)c1ccc2ccccc2c1` [Example 15, 2-(N-cyanoimino)-5-[1-(2-naphthyl)ethylidene] thiazolidin-4-one], the inhibition at 0.1 µM amounted to 64%.

The same assay, now with this note: read-out: Inhibition rate (%).
In the case of `CC(=C1SC(=NC#N)NC1=O)c1ccccc1` [Example 13, 2-(N-cyanoimino)-5-(1-phenylethylidene) thiazolidin-4-one potassium salt], the inhibition at 0.1 µM came to 60%.

Another assay deals with 5-lipoxygenase.
Assay: not given
The conditions noted are these: in words, prior-art compound; cited from earlier work.
Consider `CC(C)(C)c1cc(C=C2SC(=NC#N)NC2=O)cc(C(C)(C)C)c1O`, for which the 5-lipoxygenase inhibiting action was 5-lipoxygenase and cycloxygenase inhibiting actions.

The subject of a further assay is cycloxygenase.
Assay: not given
The conditions noted are these: in words, prior-art compound; cited from earlier work.
Consider `CC(C)(C)c1cc(C=C2SC(=NC#N)NC2=O)cc(C(C)(C)C)c1O`, for which the cycloxygenase inhibiting action is 5-lipoxygenase and cycloxygenase inhibiting actions.

For a further assay, the system named is aldose reducing enzyme.
Assay: not given
To be noted: in words, prior-art compound; cited from earlier work.
For `CC(C)(C)c1cc(C=C2SC(=NC#N)NC2=O)cc(C(C)(C)C)c1O`, the “aldose reducing enzyme inhibiting action” value is reported as “no aldose reducing enzyme inhibiting action”.
